Experimental data taken from paper PMC12030059, “Mechanistic Advances in the Therapeutic Application of Bixin for Lung Inflammation In Vitro and In Vivo” (Pharmaceuticals, 2025).

Assays:
Assay type in all cases: cell-based
[1] = tested on: NOS2; test: Western blotting, NOS2 expression; settings: RAW 264.7, 200 μM, CSE 5%
Experimental: (§1) The RAW 264.7 macrophage cell lines were cultured in DMEM supplemented with 10% (v/v) FBS, pH 7.2, at 37 °C in a humidified atmosphere with 5% CO2. RAW 264.7 cells were plated in a 24-well plate (3.5 × 10^5 cells/well) in DMEM with 1% (v/v) FBS and left overnight to adhere. […]
(§2) Cells were lysed in RIPA buffer containing […]™ Protease Inhibitor and 1 mM sodium orthovanadate. Samples were then analyzed using the bicinchoninic acid (BCA) method (BCA Protein Assay Kit). Standard curves with known albumin concentrations (0–2 mg/mL) were used. The working solution was prepared according to the manufacturer’s instructions. For protein quantification, 10 μL of the sample was mixed with 100 μL of the working solution, and the same procedure was performed for each point on the standard curve in a 96-well plate. […] Absorbance was read at 565 nm using a Varioskan LUX spectrophotometer (ThermoFisher Scientific, Waltham, MA, USA).
(§3) Cell lysates (10–20 μg of protein) were separated by SDS-PAGE (sodium dodecyl sulfate polyacrylamide gel for electrophoresis) (8 or 12% polyacrylamide) and transferred (25 V, 1.0 A, 30 min—Trans-Blot Turbo Transfer System, Bio-Rad—São Paulo, Brazil) to a PVDF membrane. […] Densitometry was quantified using ImageJ software v. […] Results are expressed as densitometric values for each protein normalized to β-actin.

[2] = tested on: F-actin in RAW 264.7 cells; test: F-actin polymerization assay; settings: 200 μM, alone and in the presence of 5% CSE
Experimental: RAW 264.7 cells were seeded in a 24-well plate (2.5 × 10^5 cells/well) and stimulated as previously described. After reaching 70% confluence, cells were blocked with 5% (w/v) BSA for 1 h and washed three times in PBS-Tween 20 (0.1% (v/v)). The supernatants were replaced with ActinRed (ThermoFisher Scientific, Waltham, MA, USA) for 30 min, followed by washing and incubation with DAPI for 5 min. After the final wash, DMEM FluoroBrite was added, and fluorescence was analyzed using the EVOS inverted microscope (ThermoFisher Scientific, Waltham, MA, USA).

[3] = tested on: p-p65 NF-κB in RAW 264.7 cells; test: Immunocytochemistry for p-p65 nuclear translocation; settings: for nuclear p-p65 (green fluorescence colocalized with DAPI), compound alone: 200 μM, no stimulus; for p-p65 NF-κB nuclear translocation in cells stimulated with CSE: 5% CSE then compound 200 μM
Experimental: RAW 264.7 cells were seeded in a 24-well plate (2.5 × 10^5 cells/well) and stimulated as previously described. After reaching 70% confluence, cells were blocked with 5% (w/v) BSA for 1 h, then washed three times in PBS-Tween 20 (0.1% (v/v)). The supernatants were replaced with a solution containing the primary antibody against p-p65 (#3033-rabbit-1:500) (Cell Signaling Technology, Danvers, MA, USA) diluted in PBS-T with 1% (w/v) BSA and incubated overnight. After incubation, cells were incubated for 1 h with a secondary antibody conjugated to Alexa Fluor-488 (1:1000; ThermoFisher Scientific, Waltham, MA, USA). Cells were then washed three times with PBS-T and incubated with DAPI for 5 min. After the final wash, DMEM FluoroBrite was added, and fluorescence was analyzed using the EVOS inverted microscope (ThermoFisher Scientific, Waltham, MA, USA). Images were captured at 20× magnification from at least 10 fields for each experimental condition, and fluorescence intensity was quantified.

[4] = tested on: RAW 264.7 macrophages; test: MTT cell viability assay; settings: 12.5 to 200 μM, 3 h of exposure
Experimental: RAW 264.7 cells were plated (5 × 10^4 cells/well) in a 96-well plate with DMEM and 10% FBS. When cells reached 90% confluence, the 10% (v/v) FBS DMEM was discarded and replaced with the stimuli. […] The metabolism of MTT by the cells was monitored by the formation of insoluble salts, which were then dissolved in isopropyl alcohol. Absorbance was read at 570 nm using a Varioskan LUX (ThermoFisher Scientific, Waltham, MA, USA). […] Cell viability was normalized in all groups by the control (1% (v/v) FBS DMEM), with 10% (v/v) FBS in DMEM used as the positive growth control.

[5] = tested on: RAW 264.7 cells; test: Wound healing migration assay; settings: 24 h, mitomycin C pretreated; for cell migration (wound closure), compound alone: 200 μM, no stimulus; for cell migration induced by CSE: CSE 5% plus compound
Experimental: RAW 264.7 cells were seeded in a 24-well plate (4.0 × 10^5 cells/well) and cultured until maximum confluence. Cells were then treated with mitomycin C (5 μg/mL) in FBS-free DMEM for 2 h, followed by washing with PBS. A linear scratch was made with a 200 μL pipette tip in each well. Cells were then stimulated for 24 h with the stimuli diluted in DMEM supplemented with 1% (v/v) FBS. Wound closure was monitored by capturing images at 0 and 24 h. The area of wound closure in each image was measured at five different points using a ruler tool, and an average was calculated for each image and condition. Cell migration was quantified as the percentage of wound closure at 24 h compared to the area at 0 h for each group.

[6] = tested on: ICAM-1; test: Western blotting, ICAM-1 expression; settings: RAW 264.7, 200 μM following CSE 5% exposure
Experimental: as §1, §2, §3

[7] = tested on: HDAC6; test: Western blotting, HDAC6 expression; settings: RAW 264.7, increase by CSE 5%
Experimental: The RAW 264.7 macrophage cell lines were cultured in DMEM supplemented with 10% (v/v) FBS, pH 7.2, at 37 °C in a humidified atmosphere with 5% CO2. RAW 264.7 cells were plated in a 24-well plate (3.5 × 10^5 cells/well) in DMEM with 1% (v/v) FBS and left overnight to adhere. […] After incubation, the medium was removed, and a 100 μM solution of bixin or potassium bixinate (diluted in DMEM; bixin was first prepared as a stock solution in DMSO) was added for an additional 1 h.
as §2, with “Standard curves with known albumin concentrations (0–2 mg/mL) were used. The working solution was prepared according to the manufacturer’s instructions.” left out
as §3

Compound | NOS2 expression (NOS2/β-actin) [1] | F-actin labeling (MFI) [2] | nuclear p-p65 (green fluorescence colocalized with DAPI), compound alone [3] | p-p65 NF-κB nuclear translocation in cells stimulated with CSE [3] | cell viability [4] | cell migration (wound closure), compound alone [5] | cell migration induced by CSE [5] | ICAM-1 expression (ICAM-1/β-actin) [6] | HDAC6 expression (HDAC6/β-actin) [7]
COC(=O)/C=C/C(C)=C\C=C\C(C)=C\C=C\C=C(C)\C=C\C=C(C)\C=C\C(=O)O [HBx, (2E,4E,6E,8E,10E,12E,14E,16Z,18E)-20-methoxy-4,8,13,17-tetramethyl-20-oxoicosa-2,4,6,8,10,12,14,16,18-nonaenoic acid] | reduced it | maintained F-actin at control levels | do not display a significant increase in green fluorescence intensity | prevent p-p65 NF-κB nuclear translocation | did not affect cell viability | no migration occurred | completely inhibited | reduced ICAM-1 expression | effective in reducing it
potassium bixinate [KBx] | reduced it | maintained F-actin at control levels | do not display a significant increase in green fluorescence intensity | prevent p-p65 NF-κB nuclear translocation | did not affect cell viability | no migration occurred | completely inhibited | reduced ICAM-1 expression | effective in reducing it
